Laboratory results from patent US20080160088A1, “COMPOSITION CONTAINING HYDROXYAPATITE AND A CALCIUM SALT” (L'OREAL, priority 2006, published 2008).

Test system: Episkin™ reconstructed epidermides
Test: Diffusion of radioactively labelled caffeine through Episkin reconstructed epidermides (barrier function)
Assay type: cell-based
Conditions: 200 μg/ml; for Reduction of the passage of caffeine after 2 hours of application (in %): relative to the control
Method: Hydroxyapatite in the form of particles sold under the name Hydroxysomes™ by LSC and their combination with a calcium D-pantetheine sulfonate sold by SOGO Pharmaceutical were tested on an in vitro model to evaluate the overall effect of this combination on the barrier function of the skin.
This test consists in applying the test active agents to Episkin™ reconstructed epidermides differentiated on D13, and then, after incubation for 5 days, in applying radioactively labelled caffeine and monitoring the diffusion of the labelled caffeine through the reconstructed epidermides.
Vitamin C, which is known to improve the epidermal barrier function via stimulation of the synthesis of the epidermal lipids, is used as a reference molecule for this test (positive control). Water is used as a negative control.
Differentiated (D13) Episkin™ epidermides were placed in 12-well plates containing 2 ml of differentiation medium and were precultured at 37° C. and 5% CO2 for 24 hours. After incubation, the epidermides were treated topically with 100 μl of each concentration of test product or of the reference product (vitamin C).
Control epidermides were treated topically with 100 μl of water.
The epidermides were then incubated at 37° C. and 5% CO2 for 5 days, with changing of the medium and new application of the active agents after 2 days.
The treatments were performed in quintuplicate (n=5).
Four epidermides were used for the passage of caffeine and one “control” epidermis was kept to perform histology at the end of the experiment.
After treatment with the test active agents and the reference product (vitamin C), the epidermides were washed and the caffeine was applied to the surface of each epidermis at a rate of 100 μl containing 2 μCi/ml (0.04 mM) of radioactive caffeine and 0.35 mM of cold caffeine, which corresponds to about 500 000 cpm total.
The % activity of caffeine after 2 hours of application was measured.

## O=C1O[C@H]([C@@H](O)CO)C(O)=C1O [Vitamin C]
Topical 5 days, caffeine after 2 hours of application, read-out: % activity relative to the control
  activity at 200 µg/mL: 59%
  Reduction of the passage of caffeine after 2 hours of application (in %): −41%
Listed as vitamin C
  Reduction of the passage of caffeine after 2 hours of application (in %): −41%
